Measured values published in PubChem BioAssay AID1259407 (Chemical Carcinogenesis Research Information System (CCRIS), 2018).
Active and inactive are the calls of the source. How the calls were made is not given here.

Tested on: CCRIS mutagenicity, Ames/micronucleus/aberration tests
Experiment: CCRIS mutagenicity studies
[1] = Test System: AMES SALMONELLA TYPHIMURIUM, Strain/Indicator: TA1537, Metabolic Activation: NONE, Method: STANDARD PLATE
[2] = Test System: AMES SALMONELLA TYPHIMURIUM, Strain/Indicator: TA98, Metabolic Activation: NONE, Method: STANDARD PLATE
[3] = Test System: AMES SALMONELLA TYPHIMURIUM, Strain/Indicator: TA98, Metabolic Activation: RAT, LIVER, S-9, AROCLOR 1254, Method: STANDARD PLATE
[4] = Test System: AMES SALMONELLA TYPHIMURIUM, Strain/Indicator: TA100, Metabolic Activation: NONE, Method: STANDARD PLATE
[5] = Test System: AMES SALMONELLA TYPHIMURIUM, Strain/Indicator: TA100, Metabolic Activation: RAT, LIVER, S-9, AROCLOR 1254, Method: STANDARD PLATE
[6] = Test System: AMES SALMONELLA TYPHIMURIUM, Strain/Indicator: TA98, Metabolic Activation: NONE, Method: PREINCUBATION
[7] = Test System: AMES SALMONELLA TYPHIMURIUM, Strain/Indicator: TA100, Metabolic Activation: NONE, Method: PREINCUBATION

Measured: mutagenic call

O=NN(c1ccc(C(=O)O)cc1)C1OC[C@@H](O)[C@@H](O)[C@@H]1O (stereo partly specified)
active: Test System: AMES SALMONELLA TYPHIMURIUM, Strain/Indicator: TA100, Metabolic Activation: NONE, Method: LIQUID INCUBATION active; positive

CN(C)CCNC(=O)c1cccc2c1C(=O)c1ccccc1C2=O
active: [1] active; positive

C1=Cc2cc3ccccc3c3cccc1c23
inactive: [2] inactive; negative | [4] inactive; negative
active: [3] active; positive | [5] active; positive

Nc1ccc(O)c([N+](=O)[O-])c1
active: [6] active; positive | Test System: MOUSE LYMPHOMA, Strain/Indicator: L5178Y (TK+/TK-), Metabolic Activation: NONE, Method: SUSPENSION/PLATE active; positive | Test System: MOUSE LYMPHOMA, Strain/Indicator: L5178Y (TK+/TK-), Metabolic Activation: RAT, LIVER, S-9, AROCLOR 1254, Method: SUSPENSION/PLATE active; positive
inactive: Test System: AMES SALMONELLA TYPHIMURIUM, Strain/Indicator: TA97, Metabolic Activation: HAMSTER, LIVER, S-9, AROCLOR 1254 (10%), Method: PREINCUBATION inactive; negative | Test System: AMES SALMONELLA TYPHIMURIUM, Strain/Indicator: TA97, Metabolic Activation: NONE, Method: PREINCUBATION inactive; negative | Test System: AMES SALMONELLA TYPHIMURIUM, Strain/Indicator: TA97, Metabolic Activation: RAT, LIVER, S-9, AROCLOR 1254 (10%), Method: PREINCUBATION inactive; negative | Test System: AMES SALMONELLA TYPHIMURIUM, Strain/Indicator: TA98, Metabolic Activation: HAMSTER, LIVER, S-9, AROCLOR 1254 (10%), Method: PREINCUBATION inactive; negative | [2] inactive; negative | Test System: AMES SALMONELLA TYPHIMURIUM, Strain/Indicator: TA98, Metabolic Activation: RAT, LIVER, S-9, AROCLOR 1254 (10%), Method: PREINCUBATION inactive; negative | [3] inactive; negative | Test System: AMES SALMONELLA TYPHIMURIUM, Strain/Indicator: TA100, Metabolic Activation: HAMSTER, LIVER, S-9, AROCLOR 1254 (10%), Method: PREINCUBATION inactive; negative | [7] inactive; negative | [4] inactive; negative | Test System: AMES SALMONELLA TYPHIMURIUM, Strain/Indicator: TA100, Metabolic Activation: RAT, LIVER, S-9, AROCLOR 1254 (10%), Method: PREINCUBATION inactive; negative | [5] inactive; negative | Test System: AMES SALMONELLA TYPHIMURIUM, Strain/Indicator: TA1535, Metabolic Activation: HAMSTER, LIVER, S-9, AROCLOR 1254 (10%), Method: PREINCUBATION inactive; negative | Test System: AMES SALMONELLA TYPHIMURIUM, Strain/Indicator: TA1535, Metabolic Activation: NONE, Method: PREINCUBATION inactive; negative | Test System: AMES SALMONELLA TYPHIMURIUM, Strain/Indicator: TA1535, Metabolic Activation: NONE, Method: STANDARD PLATE inactive; negative | Test System: AMES SALMONELLA TYPHIMURIUM, Strain/Indicator: TA1535, Metabolic Activation: RAT, LIVER, S-9, AROCLOR 1254 (10%), Method: PREINCUBATION inactive; negative | Test System: AMES SALMONELLA TYPHIMURIUM, Strain/Indicator: TA1535, Metabolic Activation: RAT, LIVER, S-9, AROCLOR 1254, Method: STANDARD PLATE inactive; negative | [1] inactive; negative | Test System: AMES SALMONELLA TYPHIMURIUM, Strain/Indicator: TA1537, Metabolic Activation: RAT, LIVER, S-9, AROCLOR 1254, Method: STANDARD PLATE inactive; negative | Test System: AMES SALMONELLA TYPHIMURIUM, Strain/Indicator: TA1538, Metabolic Activation: NONE, Method: STANDARD PLATE inactive; negative | Test System: AMES SALMONELLA TYPHIMURIUM, Strain/Indicator: TA1538, Metabolic Activation: RAT, LIVER, S-9, AROCLOR 1254, Method: STANDARD PLATE inactive; negative | Test System: E. COLI, Strain/Indicator: WP2 UVRA, Metabolic Activation: HAMSTER, LIVER, S-9, AROCLOR 1254, Method: STANDARD PLATE inactive; negative | Test System: E. COLI, Strain/Indicator: WP2 UVRA, Metabolic Activation: HAMSTER, LIVER, S-9, Method: STANDARD PLATE inactive; negative | Test System: E. COLI, Strain/Indicator: WP2 UVRA, Metabolic Activation: MOUSE, LIVER, S-9, AROCLOR 1254, Method: STANDARD PLATE inactive; negative | Test System: E. COLI, Strain/Indicator: WP2 UVRA, Metabolic Activation: MOUSE, LIVER, S-9, Method: STANDARD PLATE inactive; negative | Test System: E. COLI, Strain/Indicator: WP2 UVRA, Metabolic Activation: NONE, Method: STANDARD PLATE inactive; negative | Test System: E. COLI, Strain/Indicator: WP2 UVRA, Metabolic Activation: RAT, LIVER, S-9, AROCLOR 1254, Method: STANDARD PLATE inactive; negative | Test System: E. COLI, Strain/Indicator: WP2 UVRA, Metabolic Activation: RAT, LIVER, S-9, Method: STANDARD PLATE inactive; negative

O=S(=O)(O)c1ccc2cc(O)ccc2c1
inactive: [6] inactive; negative | Test System: AMES SALMONELLA TYPHIMURIUM, Strain/Indicator: TA98, Metabolic Activation: RAT, LIVER, S-9, PHENOBARBITAL, Method: PREINCUBATION inactive; negative | [7] inactive; negative | Test System: AMES SALMONELLA TYPHIMURIUM, Strain/Indicator: TA100, Metabolic Activation: RAT, LIVER, S-9, PHENOBARBITAL, Method: PREINCUBATION inactive; negative
